In US20130072468A1, “SUBSTITUTED PIPERAZINES AS CB1 ANTAGONISTS” (priority 2011, published 2013):

What follows are compounds tested against T1, cannabinoid CB1 (Homo sapiens, UniProt P21554) (assay: Competition binding assay for cannabinoid CB1 affinity (3H-CP55,940 displacement, membranes)). Details: competition binding vs 0.5 nM 3H-CP55,940; Ki by Cheng-Prusoff; read-out: Ki values in the assay described above.
T1 construct: purchased
Experimental: Method for Evaluating Cannabinoid CB1 and CB affinity
Competition binding assays for cannabinoid CB1 and CB2 affinity were performed by incubating commercially purchased membranes prepared from cells expressing each receptor subtype (8 μg pro) with 0.5 nM ^3H-CP55,940, a non-selective cannabinoid agonist, along with concentrations of drug ranging from 0.0001-3 μM in Buffer A (5 mM MgCl2, 2.5 mM EDTA and […] BSA). Non-specific binding was defined in the presence of 10 μM CP55,940. For saturation studies, concentrations of ^3H-CP55,940 ranging from 0.1-5 nM were incubated with membranes in the presence and absence of 10 μM CP55,940. Assays were terminated after incubation for 1½ hours by rapid filtration onto 0.3 polyethylenamine treated GF/C filterplates using a BRANDEL cell harvester. The plates were dried and MICROSCINT scintillation cocktail was added, after which the bound radioactivity was quantified using a TOPCOUNT scintillation counter.
The dissociation constant (Kd) of ^3H-CP55,940 at the CB1 and CB2 receptor were determined by plotting specific binding at each concentration of radioligand, and analysis by non-linear regression. For competition studies, the concentration of each drug that inhibited 50 percent of ^3H-CP55,940 binding (IC50) was determined by non-linear regression analysis of the radioligand displacement curves. Affinity constants (Ki) were calculated using the equation derived by Cheng and Prusoff (1973), defined as: IC50/1+[conc. ligand/Kd].

T1 sequence (P21554 whole entry): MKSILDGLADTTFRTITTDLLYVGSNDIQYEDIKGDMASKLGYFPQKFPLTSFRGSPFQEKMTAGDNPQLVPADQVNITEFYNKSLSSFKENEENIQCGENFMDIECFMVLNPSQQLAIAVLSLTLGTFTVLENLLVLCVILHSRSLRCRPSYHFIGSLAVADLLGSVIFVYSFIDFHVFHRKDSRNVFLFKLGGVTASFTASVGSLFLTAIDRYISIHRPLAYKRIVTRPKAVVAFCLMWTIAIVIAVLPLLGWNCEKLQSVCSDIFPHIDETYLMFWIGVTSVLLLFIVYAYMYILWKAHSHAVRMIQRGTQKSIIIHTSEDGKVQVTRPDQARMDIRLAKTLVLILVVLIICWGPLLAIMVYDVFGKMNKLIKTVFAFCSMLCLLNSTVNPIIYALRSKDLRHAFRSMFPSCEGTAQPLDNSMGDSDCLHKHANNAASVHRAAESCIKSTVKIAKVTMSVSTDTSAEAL

Ki [nM]	SMILES
≥ 900	COc1ccc(N2CCN(Cc3ccccc3)C[C@H]2c2ccc(Cl)cc2)c(Cl)c1 [Example 807]
≥ 900	COc1cccc([C@@H]2CNCCN2c2ccc(C#N)cc2Cl)c1 [Example 813b]
≥ 900	COC(=O)c1ccc(N2CCN(Cc3ccccc3)C[C@H]2c2ccc(Cl)cc2)cc1 [Example 817]
≥ 900	COc1ccc(N2CCNC[C@H]2c2ccc(Cl)cc2)c(F)c1 [Example 822]
≥ 900	OCc1ccc(N2CCN(Cc3ccccc3)C[C@H]2c2ccc(Cl)cc2)cc1 [Example 824]
≥ 900	N#Cc1ccc(N2CCNC[C@H]2c2ccc(Cl)cc2)nc1 [Example 826b]
≥ 900	N#Cc1cccnc1N1CCNC[C@H]1c1ccc(Cl)cc1 [Example 826d]
≥ 900	COc1ccc(N2CCNC[C@H]2c2ccc(F)cc2)c(C#N)c1 [Example 826e]
≥ 900	O=C1CN(Cc2ccccc2)C[C@@H](c2ccc(Cl)cc2)N1c1ccc(O)cc1Cl [Example 830]
≥ 900	O=C1CN(Cc2ccccc2)C[C@@H](c2ccc(Cl)cc2)N1c1ccc(O)cc1 [Example 831]
≥ 900	CC(O)(CN1CCN(c2ccc(Cl)cc2Cl)[C@H](c2ccc(Cl)cc2)C1)C(=O)O (some centres unmarked) [Example 877b]
0.2 to 100	C[C@@](O)(CN1CCN(c2ccc(Cl)cc2Cl)[C@H](c2ccc(Cl)cc2)C1)c1ccc(Cl)cc1 [Example 930]
0.2 to 100	C[C@@](O)(CN1CCN(c2ccc(C#N)cc2Cl)[C@H](c2ccc(Cl)cc2)C1)c1cc(F)cc(F)c1 [Example 949]
0.2 to 100	C[C@@](O)(CN1CCN(c2ccc(Cl)cc2Cl)[C@H](c2ccc(Cl)cc2)C1)c1ccc(N)nc1 [Example 1037]
~873	CC(C)(C)CCN1CCC(C(C)(O)CN2CCN(c3ccc(Cl)cc3Cl)[C@H](c3ccc(Cl)cc3)C2)CC1 (some centres unmarked) [Example 1089]
0.2 to 100	CC(O)(CN1CCN(c2ccc(Cl)cc2Cl)[C@H](c2ccc(Cl)cc2)C1)C1CCN(S(=O)(=O)C2CC2)CC1 (some centres unmarked) [Example 1091]
≥ 900	CC(C)(C)OC(=O)N[C@@H](C(=O)N1CCN(c2ccc(Cl)cc2Cl)[C@H](c2ccc(Cl)cc2)C1)c1ccc(Cl)cc1 [Example 1167a]
